US6951655B2, “Pro-micelle pharmaceutical compositions” (IMI Biomed, Inc., priority 2001, dated 2005)

Assays:
[1] = test system: rabbits; assay: Blood glucose in rabbits after i.p. administration before glucose challenge; format: in vivo, rabbit; conditions: i.p. 15 minutes before glucose challenge of 250 mg/kg, FIG. 10
Method: FIG. 10 depicts blood glucose when a standard regular insulin solution (0.3 ml of 3.1 IU/ml) or an extraction of the pro-micelle (2.5 ml of 0.4 IU/ml) was administered intraperitonally (i.p.) to rabbits 15 minutes before a glucose challenge of 250 mg/kg.

[2] = test system: rabbits; assay: Blood glucose in rabbits after i.v. injection before glucose challenge; format: in vivo, rabbit
Method: FIG. 11 depicts blood glucose levels when a standard regular insulin (0.2 ml of 3.1 IU/ml) or an extraction of the pro-micelle (1.5 ml. of 0.4 IU/ml) was intravenously (i.v.) injected into rabbits one minute before a glucose challenge of 250 mg/kg. […] With the formulation of the invention, a hypoglycemic effect was noticed within 35 minutes, and lasted for the duration of the experiment of 120 minutes or more.

standard regular insulin: Standard regular insulin solution, 3.1 IU/ml, comparator
effect on blood sugar after i.p. injection [1]: decreased blood sugar
duration of hypoglycemic effect ([2]; i.v.): short in duration
blood glucose course after i.v. injection ([2]; i.v. one minute before glucose challenge of 250 mg/kg, FIG. 11): rapidly decreased from 20 to 45 minutes
blood glucose relative to control level within 90 minutes of injection ([2]; i.v., within 90 minutes of the insulin injection): 10-30 % of the control level
